The subject of this assay is C. albicans ATCC 10231 (strain A). Description: ROS production assay (DCFH-DA). It counts as cell-based, Candida albicans. Particulars: 1× and 2× MIC (H2O2 1 mM), 1-h treatment. On the procedure:
ROS production assay was performed as previously described with minor modifications. […] Once entering the cells, the DCFH-DA probe is first hydrolyzed to the non-fluorescent 2′,7′-dichlorodihydrofluorescein (DCFH) by cellular esterases. […] A colony of C. albicans ATCC 10231 (strain A) was used to inoculate 5 mL of PDB in a Falcon tube and grown overnight at 35° C. at 200 rpm.
Thus, whether the compounds of the invention would also induce ROS against C. albicans was studied. […] 2′,7′-dichlorodihydrofluorescin diacetate (DCFH-DA) was then used to detect and visualize ROS production (FIG. 5). As a positive control, cells were treated with H2O2, which is an inducer of hydroxyl radical formation.

The structures appear in SMILES notation.

Regarding `CCCCCn1sc2ccccc2c1=O` [Compound 3a], the “ROS induction (DCFH-DA fluorescence)” value is “highly fluorescent”.

These data come from patent US10544112B2, “Identification of ebsulfur analogues with broad-spectrum antifungal activity” (priority 2017, dated 2020).
